# Like-named read-outs stand apart in the source and are kept apart here.
# Experiments:
# Type in all cases: cell-based
# S. aureus ATCC 29213 = assay: MIC by NCCLS microdilution, antibacterial agents with and without EPI; conditions: for MIC: Staphylococcus aureus; for MIC in the presence of 4X MEC of EPI, VX-710: VX-710 100 μg/ml; for MIC in the presence of 4X MEC of EPI, VX-853: VX-853 6.25 μg/ml; for MIC in the presence of 4X MEC of EPI, reserpine: reserpine 25 μg/ml
# Procedure: 3% sterile laked horse blood (Quad Five, Ryegate, Mont.) was added to assays for E. faecalis and S. Pneumoniae. A final concentration of 1% DMSO was present in all assays. […]
# A-106 and C-9 were tested at their respective MECs in combination with a variety of different classes of antibiotics against S. aureus ATCC 29213 (Table 2).
# S. aureus SA-8325-4 = assay: MIC of fluoroquinolones with and without EPI; conditions: Staphylococcus aureus, SA83254, read-out: MIC of antibacterial agent, EPI none
# Text: (§1) A variety of strains may be used in these experiments, including, but not limited to, S. aureus ATCC 29213, E. faecalis ATCC 29212, and S. pneumoniae, S. aureus strains SA-1199, SA-1199B, SA-8325-4, and SA-K2068. S. aureus ATCC 29213, E. faecalis ATCC 29212, and S. pneumoniae ATCC 10015 were obtained from the American Type Culture Collection (Manassas, Va.). S. aureus strains SA-1199 (clinical isolate, susceptible), SA-1199B (SA-1199, NorA overproducing, also has A116E GrlA mutation), SA-8325-4 (NCTC 8325 cured of prophages), SA-K2068 (SA-8325-4, non-NorA multidrug efflux pump overproducing mutation) were obtained from Glenn Kaatz (Kaatz et al., “Identification and characterization of a novel efflux-related multidrug resistance phenotype in Staphylococcus aureus”, J. Antimicrob. Chemother. 50:833-838 (2002); 1993; Kaatz et al., “Phenothiazines and thioxanthenes inhibit multidrug efflux pump activity in Staphylococcus aureus”, Antimicrob. Agents Chemother. 47:719-726, Kaatz et al., “Efflux-mediated fluoroquinolone resistance in Staphylococcus aureus. Antimicrob. Agents Chemother.”, 37:1086-1094, 1993)).
# (§2) 3% sterile laked horse blood (Quad Five, Ryegate, Mont.) was added to assays for E. faecalis and S. Pneumoniae. A final concentration of 1% DMSO was present in all assays.
# [1] = test system: S. aureus SA-1199 (clinical isolate, susceptible); assay: MIC of fluoroquinolones with and without EPI
# Text: as §1, §2
# [2] = test system: S. aureus SA-K2068 (non-NorA multidrug efflux pump overproducing); assay: microbe, parasite or virus in culture; conditions: S. aureus K2068 (non-NorA MDR pump overproducer); no EPI
# Text: as §1, §2
# (§3) Recent more hydrophobic fluoroquinolones such as gatifloxacin and moxifloxacin are less well recognized by NorA; however, recently one other pump in S. aureus has been described which also recognizes hydrophobic fluoroquinolones (Kaatz et al. 2002, supra). To investigate the potential of A-106 and C-9 to block the efflux of several fluoroquinolones in cells with constituitively over-expressed efflux pumps, we used S. aureus strains SA-1199B and K2068 (Table 3). […] Kaatz et al., “Phenothiazines and thioxanthenes inhibit multidrug efflux pump activity in Staphylococcus aureus”, Antimicrob. Agents Chemother. 47:719-726 (2003).
# [3] = test system: S. aureus SA-1199B (NorA overproducing); assay: MIC of fluoroquinolones with and without EPI; conditions: S. aureus SA-1199B (NorA overproducer, GrlA A116E); no EPI
# Text: as §1, §2, §3
# [4] = ATCC29213, antibacterial agent alone, read-out: MIC, No EPI
Compound,MIC (S. aureus ATCC 29213; [4]),"MIC in the presence of 4X MEC of EPI, VX-710 (S. aureus ATCC 29213)","MIC in the presence of 4X MEC of EPI, VX-853 (S. aureus ATCC 29213)","MIC in the presence of 4X MEC of EPI, reserpine (S. aureus ATCC 29213)",MIC (S. aureus SA-8325-4),"MIC ([1]; Staphylococcus aureus, read-out: MIC of antibacterial agent, EPI none)","MIC (S. aureus ATCC 29213; ATCC29213, read-out: MIC, No EPI, antibacterial agent alone)","MIC of antibacterial agent, EPI none (S. aureus ATCC 29213; S. aureus ATCC 29213, no EPI)","MIC, No EPI (S. aureus ATCC 29213; antibacterial agent alone)","MIC of antibacterial agent, EPI none ([1]; S. aureus SA-1199, no EPI)","MIC of antibacterial agent, EPI none [2]","MIC of antibacterial agent, EPI none [3]"
CC[C@H]1OC(=O)[C@H](C)[C@@H](O[C@H]2C[C@@](C)(OC)[C@@H](O)[C@H](C)O2)[C@H](C)[C@@H](O[C@@H]2O[C@H](C)C[C@H](N(C)C)[C@H]2O)[C@](C)(O)C[C@@H](C)C(=O)[C@H](C)[C@@H](O)[C@]1(C)O [erythromycin],0.25 µg/mL,0.25 µg/mL,0.25 µg/mL,0.25 µg/mL,,,,,,,,
C[C@H]1COc2c(N3CCN(C)CC3)c(F)cc3c(=O)c(C(=O)O)cn1c23 [levofloxacin],0.25 µg/mL,0.125 µg/mL,0.125 µg/mL,0.125 µg/mL,0.25 µg/mL,0.125 µg/mL,,,,,,
CC(=O)NC[C@H]1CN(c2ccc(N3CCOCC3)c(F)c2)C(=O)O1 [linezolid],4 µg/mL,4 µg/mL,4 µg/mL,4 µg/mL,,,,,,,,
CO[C@@H]1[C@@H](OC(N)=O)[C@@H](O)[C@H](Oc2ccc3c(O)c(NC(=O)c4ccc(O)c(CC=C(C)C)c4)c(=O)oc3c2C)OC1(C)C [novobiocin],0.125 µg/mL,0.063 µg/mL,0.063 µg/mL,0.063 µg/mL,,,,,,,,
[Br-].c1ccc([P+](c2ccccc2)(c2ccccc2)c2ccccc2)cc1 [tetraphenylphosphonium bromide],,4 µg/mL,8 µg/mL,8 µg/mL,,,16 µg/mL,,,,,
gentamicin [reference compound],,,0.25 µg/mL,,,,,0.5 µg/mL,0.5 µg/mL,0.5 µg/mL,0.063 µg/mL,0.5 µg/mL
